The results in this text go back to PubChem BioAssay AID328 (DTP/NCI, 2004).

Values joined by “and” are separate entries in the source; they are usually repeats but may differ in a detail not shown here. Identical values can stand only once. Toxic doses and inconclusive results are not listed.

In the test the test system is BDF1 mice, P388 leukemia ip, median survival T/C. In words: NCI In Vivo Anticancer Drug Screen. Data for tumor model P388 Leukemia (intraperitoneal) in B6D2F1 (BDF1) mice. The conditions noted are these: endpoint: median survival time, higher = longer survival. The method, boiled down: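 Transplantable tumour in mice; compound vs vehicle dosing; survival scored; ratio of treated to control reported.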

The mark [1] stands for this setting: dose: 50.0 mg/kg/injection, schedule: Q01DX009 (ip), vehicle: saline with Tween-80.
The mark [2] stands for this setting: dose: 100.0 mg/kg/injection, schedule: Q01DX009 (ip), vehicle: saline with Tween-80.
The mark [3] stands for this setting: dose: 200.0 mg/kg/injection, schedule: Q01DX009 (ip), vehicle: saline with Tween-80.
[4] abbreviates: dose: 400.0 mg/kg/injection, schedule: Q01DX009 (ip), vehicle: saline with Tween-80.
The mark [5] stands for this setting: dose: 100.0 mg/kg/injection, schedule: Q04DX003 (ip), vehicle: Klucel (hydroxypropylcellulose) (HPC).
Where [6] appears, read: dose: 200.0 mg/kg/injection, schedule: Q04DX003 (ip), vehicle: Klucel (hydroxypropylcellulose) (HPC).
[7] abbreviates: dose: 400.0 mg/kg/injection, schedule: Q04DX003 (ip), vehicle: Klucel (hydroxypropylcellulose) (HPC).
Setting [8] is: dose: 100.0 mg/kg/injection, schedule: Q04DX003 (ip), vehicle: saline with Tween-80.
Where [9] appears, read: dose: 200.0 mg/kg/injection, schedule: Q04DX003 (ip), vehicle: saline with Tween-80.
The mark [10] stands for this setting: dose: 400.0 mg/kg/injection, schedule: Q04DX003 (ip), vehicle: saline with Tween-80.
Setting [11] is: dose: 25.0 mg/kg/injection, schedule: Q01DX009 (ip), vehicle: saline with Tween-80.
[12] abbreviates: dose: 100.0 mg/kg/injection, schedule: Q01DX009 (ip), vehicle: Klucel (hydroxypropylcellulose) (HPC).
[13] abbreviates: dose: 200.0 mg/kg/injection, schedule: Q01DX009 (ip), vehicle: Klucel (hydroxypropylcellulose) (HPC).
The mark [14] stands for this setting: dose: 400.0 mg/kg/injection, schedule: Q01DX009 (ip), vehicle: Klucel (hydroxypropylcellulose) (HPC).
The mark [15] stands for this setting: dose: 50.0 mg/kg/injection, schedule: Q01DX009 (ip), vehicle: saline.
Setting [16] is: dose: 12.5 mg/kg/injection, schedule: Q01DX009 (ip), vehicle: saline with Tween-80.

For `CC(=O)C/C(C)=N\NC(=S)SCc1ccccc1`, the T/C (dose: 75.0 mg/kg/injection, schedule: Q01DX009 (ip), vehicle: saline with Tween-80) was 90 % of control; the T/C (dose: 150.0 mg/kg/injection, schedule: Q01DX009 (ip), vehicle: saline with Tween-80) was 97 % of control; the T/C (dose: 300.0 mg/kg/injection, schedule: Q01DX009 (ip), vehicle: saline with Tween-80) is 92 % of control.

For `CC(=O)Oc1c(Br)cc(Br)cc1-c1ccccc1`, the T/C under setting [1] was 92 % of control, the T/C under setting [2] is 92 % of control, the T/C under setting [3] was 92 % of control and the T/C under setting [4] was 90 % of control.

Take `CN(C)CCNc1cc(O)c2c(c1O)C(=O)c1ccccc1C2=O`: the T/C by setting is: (dose: 50.0 mg/kg/injection, schedule: Q01DX005 (ip), vehicle: saline with Tween-80) 113 % of control; (dose: 100.0 mg/kg/injection, schedule: Q01DX005 (ip), vehicle: saline with Tween-80) 103 % of control; (dose: 200.0 mg/kg/injection, schedule: Q01DX005 (ip), vehicle: saline with Tween-80) 113 % of control.

Consider `COC(=O)c1c(I)cccc1[N+](=O)[O-]`, for which the T/C reads like this: under setting [5], 91 % of control; under setting [6], 95 % of control; under setting [7], 100 % of control.

As for `[O-][n+]1onc2c(-c3ccccc3)nnc(-c3ccccc3)c21`, the T/C is 104 % of control (dose: 100.0 mg/kg/injection, schedule: Q04DX003 (ip), vehicle: saline sonified); 90 % of control (dose: 200.0 mg/kg/injection, schedule: Q04DX003 (ip), vehicle: saline sonified); 100 % of control (dose: 400.0 mg/kg/injection, schedule: Q04DX003 (ip), vehicle: saline sonified).

On to `O=C1NC(c2cccc3ccccc23)Nc2ccccc21` (centres undefined), for which the T/C (dose: 50.0 mg/kg/injection, schedule: Q01DX009 (ip), vehicle: water) was 169 % of control; the T/C (dose: 100.0 mg/kg/injection, schedule: Q01DX009 (ip), vehicle: water) is 200 % of control; the T/C (dose: 200.0 mg/kg/injection, schedule: Q01DX009 (ip), vehicle: water) is 104 % of control.

For the molecule `COc1cccc2c1N=C1CCCC3CN(C(C)=O)CCC123` (centres undefined), the T/C is, setting by setting: under setting [1], 99 % of control; under setting [2], 103 % of control; under setting [3], 99 % of control.

Regarding `COc1ccc(C=NCCN=Cc2ccc(OC)c(OC)c2)cc1OC`, the T/C is, setting by setting: under setting [2], 105 % of control; under setting [8], 95 % of control; under setting [3], 100 % of control; under setting [9], 91 % of control; under setting [4], 100 % of control; under setting [10], 91 % of control.

Turning to `O=C(NC(CO)C(O)c1ccc([N+](=O)[O-])cc1)C(Cl)Cl` (centres undefined), the T/C is 104 % of control under setting [8], 100 % of control under setting [9] and 109 % of control under setting [10].

`C=CCNC(=S)Nc1ccc(C)cc1`: the T/C is, setting by setting: (dose: 50.0 mg/kg/injection, schedule: Q04DX003 (ip), vehicle: Klucel (hydroxypropylcellulose) (HPC)) 112 % of control; under setting [5], 104 % of control; under setting [6], 91 % of control.

Consider `Cc1cccc(C(=O)/C=C/c2ccc(OCc3ccccc3)cc2)c1`, for which the T/C is 91 % of control under setting [1], 91 % of control under setting [2] and 89 % of control under setting [3].

For the molecule `CCCCNC(C)(C)C(=O)c1ccco1`, the T/C by setting is: under setting [8], 86 % of control; under setting [9], 100 % of control.

For `CCN(CC)CCC1(C#N)Cc2ccccc2N(CC)c2ccccc21` (centres undefined), the T/C is 107 % of control under setting [2] and 113 % of control under setting [3].

As for `O=C(Nc1ccc(Cl)c(Cl)c1)Nc1cc(Cl)ccc1Sc1ccc(Cl)cc1S(=O)(=O)O`, the T/C under setting [11] is 109 % of control, the T/C under setting [1] was 95 % of control and the T/C under setting [2] was 90 % of control.

As to `CC(=O)CC(=O)Nc1ccc(Cl)cc1Cl`, the T/C runs as follows: under setting [12], 96 % of control; under setting [5], 87 % of control; under setting [13], 104 % of control; under setting [6], 87 % of control; under setting [14], 88 % of control; under setting [7], 95 % of control.

In the case of `O=C(O)/C=C/C(=O)Nc1ccc(Cl)c(Cl)c1`, the T/C is 104 % of control (dose: 25.0 mg/kg/injection, schedule: Q01DX009 (ip), vehicle: Klucel (hydroxypropylcellulose) (HPC)); 111 % of control (dose: 50.0 mg/kg/injection, schedule: Q01DX009 (ip), vehicle: Klucel (hydroxypropylcellulose) (HPC)); 111 % of control under setting [12].

Take `O=C(C(=O)c1ccc(Br)cc1)c1ccc(Br)cc1`: the T/C is 96 % of control under setting [2], 98 % of control under setting [3] and 98 % of control under setting [4].

With `O=C1CCC23/C=C/C(=O)NCCCCNCCCNC(=O)/C=C/c4ccc(c2c4)OC3C1` (centres undefined), the T/C (dose: 50.0 mg/kg/injection, schedule: Q04DX003 (ip), vehicle: saline with Tween-80) is 105 % of control; the T/C under setting [8] was 105 % of control; the T/C under setting [9] is 105 % of control.

As for `CC1=NC(C(=O)O)C(=O)O1` (centres undefined), the T/C under setting [15] was 109 % of control; the T/C (dose: 100.0 mg/kg/injection, schedule: Q01DX009 (ip), vehicle: saline) was 104 % of control; the T/C (dose: 100.0 mg/kg/injection, schedule: Q04DX003 (ip), vehicle: saline) is 95 % of control; the T/C (dose: 200.0 mg/kg/injection, schedule: Q01DX009 (ip), vehicle: saline) was 100 % of control; the T/C (dose: 200.0 mg/kg/injection, schedule: Q04DX003 (ip), vehicle: saline) was 100 % of control; the T/C (dose: 400.0 mg/kg/injection, schedule: Q04DX003 (ip), vehicle: saline) is 87 % of control.

Regarding `O=C(CNC(=O)c1cccc(C(=O)NCC(=O)Nc2ccc(C3=NCCN3)cc2)c1)Nc1ccc(C2=NCCN2)cc1`, the T/C was 117 % of control (dose: 8.2 mg/kg/injection, schedule: Q01DX009 (ip), vehicle: saline); 169 % of control (dose: 25.0 mg/kg/injection, schedule: Q01DX009 (ip), vehicle: saline); 250 % of control under setting [15].

Take `CC(=O)c1cccc(OCc2ccccc2)c1`: the T/C was 118 % of control (dose: 100.0 mg/kg/injection, schedule: Q01DX009 (ip), vehicle: other); 100 % of control (dose: 100.0 mg/kg/injection, schedule: Q04DX003 (ip), vehicle: other); 95 % of control (dose: 200.0 mg/kg/injection, schedule: Q01DX009 (ip), vehicle: other); 95 % of control (dose: 200.0 mg/kg/injection, schedule: Q04DX003 (ip), vehicle: other); 109 % of control (dose: 400.0 mg/kg/injection, schedule: Q01DX009 (ip), vehicle: other); 116 % of control (dose: 400.0 mg/kg/injection, schedule: Q04DX003 (ip), vehicle: other).

On to `Cc1csc2ccccc12`, for which the T/C was 111 % of control under setting [16], 102 % of control under setting [11] and 119 % of control under setting [1].

Consider `COc1cc(OC)c(Br)c(OC)c1`, for which the T/C under setting [12] is 100 % of control; the T/C under setting [5] was 112 % of control; the T/C under setting [13] is 100 % of control; the T/C under setting [6] is 104 % of control; the T/C under setting [14] is 116 % of control; the T/C under setting [7] was 100 % of control.

Consider `Cc1ccccc1N=P(c1ccccc1)(c1ccccc1)c1ccccc1`, for which the T/C was 88 % of control (dose: 50.0 mg/kg/injection, schedule: Q01DX009 (ip), vehicle: gum acacia); 88 % of control (dose: 100.0 mg/kg/injection, schedule: Q01DX009 (ip), vehicle: gum acacia); 96 % of control (dose: 100.0 mg/kg/injection, schedule: Q04DX003 (ip), vehicle: gum acacia); 96 % of control (dose: 200.0 mg/kg/injection, schedule: Q04DX003 (ip), vehicle: gum acacia).

As for `[O-][n+]1c(CCl)nc2cccc3c2c1-c1ccccc1-3`, the T/C is, setting by setting: under setting [16], 106 % of control; under setting [11], 111 % of control and 121 % of control (2×); under setting [1], 121 % of control; under setting [2], 93 % of control.

With `COc1cccc(Nc2sc(C(=O)c3cc4cc(Cl)ccc4o3)c(N)c2C#N)c1`, the T/C by setting is: under setting [1], 109 % of control; under setting [2], 100 % of control; under setting [3], 115 % of control.
